Laboratory results as given in patent US20080004290A1, “Anti-Cancer Agents” (THE UNIVERSITY OF QUEENSLAND, priority 2003, published 2008).
Like-named read-outs stand apart in the source and are kept apart here.

Key:
Type in all cases: cell-based, human
[1] = tested on: Mel FH melanoma cells; test: Cell survival assay (SRB)
Method: (§1) Cell Lines and Culture Medium. All cell lines used in this study have been described previously (Parsons et al., 1986; Todaro et al., 1980; Glenn et al., 2004). All cell lines were cultured in 10% heat-inactivated foetal calf serum (CSL, Australia) in RPMI 1640 medium supplemented with 100 U/mL penicillin, 100 μg/mL streptomycin, and 3 mM HEPES at 5% CO2, 99% humidity at 37° C. Primary human fibroblasts were obtained from neonatal foreskins and cultured in the above medium. Routine mycoplasma tests were performed using Hoechst stain^i and were always negative.
(§2) Cell Survival Assay. Cells were plated into 96-well microtitre plates at 5×10^3 cells/well, and allowed to adhere overnight. Test compounds were added to culture medium at the indicated concentrations, and plates incubated in the above conditions for 24 hours. Following this incubation period, compounds and media were removed, and replaced with fresh culture medium. Cells were then grown for a further 72 hours before assay using sulforhodamine B (SRB; Sigma, St. Louis, Mo.) as previously described. Briefly, the culture medium was removed from the 96-well microtitre plates and the plates washed twice with phosphate buffered saline (PBS), before the cells were fixed with methylated spirits for 15 minutes. The plates were then rinsed with tap water and the fixed cells stained with 50 μL/well of SRB solution (0.4% sulforhodamine B (w/v) in 1% (v/v) acetic acid) over a period of 1 hour. The SRB solution was then removed from the wells and the plates rapidly washed two times with 1% (v/v) acetic acid. Protein bound dye was then solubilised with the addition of 100 μL of 10 mM unbuffered Tris, and incubated for 15 min at 25° C. Plates were then read at 564 nm on a VERSA max tunable microplate reader (Molecular Devices, Sunnyvale, Calif.).

[2] = tested on: A2058 cells; test: Cell survival assay (SRB)
Method: as §1, §2

[3] = tested on: D17 melanoma cells; test: Cell survival assay (SRB)
Method: as §1, §2

[4] = tested on: D11 melanoma cells; test: Cell survival assay (SRB)
Method: as §1, §2

[5] = tested on: HeLa cells; test: Cell survival assay (SRB)
Method: as §1, §2

[6] = tested on: AF-6 cells; test: Cell survival assay (SRB)
Method: as §1, §2

[7] = tested on: MM470 melanoma cells; test: Cell survival assay (SRB)
Method: as §1, §2

[8] = tested on: MM229 melanoma cells; test: Cell survival assay (SRB)
Method: as §1, §2

[9] = tested on: LSP M2 cells; test: Cell survival assay (SRB)
Method: as §1, §2

[10] = tested on: Mel RM melanoma cells; test: Cell survival assay (SRB)
Method: as §1, §2

[11] = tested on: D14 melanoma cells; test: Cell survival assay (SRB)
Method: as §1, §2

[12] = tested on: AO7 RM cells; test: Cell survival assay (SRB)
Method: as §1, §2

[13] = tested on: MM604 melanoma cells; test: Cell survival assay (SRB)
Method: as §1, §2

[14] = tested on: MM329 melanoma cells; test: Cell survival assay (SRB)
Method: as §1, §2

[15] = tested on: SkMel28 melanoma cells; test: Cell survival assay (SRB)
How it was run: (§3)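 Following overnight adherence, cells are treated with test compounds for 24 hours, then washed free of drug and cultured 72 hours longer. Survival is quantified by sulforhodamine B protein staining read at 564 nm.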

[16] = tested on: DO4 melanoma cells; test: Cell survival assay (SRB)
How it was run: as §3

[17] = tested on: MM96L melanoma cells; test: Cell survival assay (clonogenic survival, SRB); settings: for IC50: Homo sapiens, MM96L
How it was run: (§4)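 Cells (5×10^3/well, RPMI 1640 with 10% FCS) treated 24 h with compound at 0.01-10 μg/mL, then washed and grown 72 h drug-free at 37 °C, 5% CO2. Survival read by SRB staining after methylated-spirit fixation, absorbance 564 nm.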

[18] = tested on: NFF, neonatal foreskin fibroblasts; test: Cell survival assay (clonogenic survival, SRB), normal cells; settings: Homo sapiens, Fibroblast
How it was run: as §4

[19] = Homo sapiens, Table 11, antiproliferative potency
[20] = Table 11, IC50 (NFF)/IC50(cancer cell line)

CN(C)c1ccc(C(=O)N[C@@H](CCCCCC(=O)NO)C(=O)NCc2ccccc2)cc1 (racemic) [Example 124]
IC50 [1, 19]: 0.08 ± 0.04 µM | Selectivity Mel FH [1, 20]: 11 | IC50 ([2]; Homo sapiens, A2058, Table 11, antiproliferative potency): 0.1 ± 0.02 µM | Selectivity A2058 [2, 20]: 9 | IC50 ([3]; Homo sapiens, D17, Table 11, antiproliferative potency): 0.06 ± 0.02 µM | Selectivity D17 [3, 20]: 15 | IC50 [4, 19]: 0.3 ± 0.2 µM | Selectivity D11 [4, 20]: 3 | IC50 [5, 19]: 0.09 ± 0.01 µM | Selectivity HeLa [5, 20]: 10 | IC50 [6, 19]: 0.3 ± 0.03 µM | Selectivity AF-6 [6, 20]: 3 | IC50 [7, 19]: 0.09 ± 0.07 µM | Selectivity MM470 [7, 20]: 10 | IC50 [8, 19]: 0.6 ± 0.08 µM | Selectivity MM229 [8, 20]: 1.5 | IC50 [9, 19]: 0.45 ± 0.05 µM | Selectivity LSP M2 [9, 20]: 2 | IC50 [10, 19]: 0.95 ± 0.07 µM | Selectivity Mel RM [10, 20]: 0.9 | IC50 [11, 19]: 0.26 ± 0.08 µM | Selectivity D14 [11, 20]: 3 | IC50 [12, 19]: 0.18 ± 0.07 µM | Selectivity AO7 RM [12, 20]: 5 | IC50 [13, 19]: 0.01 ± 0.01 µM | Selectivity MM604 [13, 20]: 87 | IC50 [14, 19]: 0.06 ± 0.04 µM | Selectivity MM329 [14, 20]: 15 | IC50 ([15]; Homo sapiens, SK-MEL-28, Table 11, antiproliferative potency, read-out: IC50 (μM) SK Mel 28): 0.06 ± 0.04 µM | Selectivity SK Mel 28 [15, 20]: 15 | IC50 ([16]; Homo sapiens, DO4, Table 11, antiproliferative potency, read-out: IC50 (μM) DO4): 0.12 ± 0.03 µM | Selectivity DO4 [16, 20]: 7 | IC50 ([17]; MM96L melanoma, 24 h with compound, further 72 h growth, SRB, read-out: IC50 (uM) MM96L): 0.13 ± 0.02 µM | IC50 ([17]; Table 11, antiproliferative potency, read-out: IC50 (μM) MM96L): 0.13 ± 0.02 µM | IC50 ([17]; most preferred compounds, exemplary examples, read-out: potency of IC50 against the MM96 melanoma cells): ≤ 0.5 µM | SI (Selectivity Index = IC50 (NFF)/IC50 (MM96L)) ([17]; NFF vs MM96L): 6.7 | Selectivity MM96L [17, 20]: 6.7 | IC50 ([18]; NFF normal fibroblasts, 24 h with compound, further 72 h growth, SRB, read-out: IC50 (uM) NFF): 0.87 ± 0.07 µM | IC50 ([18]; Table 11, antiproliferative potency, read-out: IC50 (μM) NFF): 0.87 ± 0.07 µM
